Assays:
[1] = system: IL-8; assay: IL-8 release by human skin explants, pollution model (BaP), ELISA; type: cell-based; settings: PMA 1 μg/ml systemic, 24 h, without pollution
Method: b)—The product was systemically applied for 24 hours, on human skin explants (diameter of 8 mm), provided by Biopredic™ International (Rennes), which derived from mammary plastic surgery (person);
c)—The product was then applied again during pollution, for another 24 hours. Said pollution was induced in this model by application of an environmental pollutant, benzo(a)pyrene (3,4-benzopyrene/BaP) as systemic treatment, i.e. in the culture medium. This pollutant induces IL-8 release (SEPhRA results).
a)—A 2% (DE) HCR extract is diluted in the culture medium to obtain a 0.1% (DE) HCR extract, which is used as the test compound.
b)—Said HCR extract was systemically applied on the skin explants as a twenty-four hours pre-treatment. […]
e)—In order to validate the IL-8 titration, an additional condition was evaluated, i.e. stimulation with a reference pro-inflammatory molecule PMA (Phorbol 12-myristate 13-acetate, Sigma P8139), at 1 μg/ml. […]
d)—The inflammatory cytokine IL-8 was then measured out with a commercial kit from Bio-Techne/R&Dsystems (D8000C), which is an ELISA method. […] Titration raw data were obtained by measuring the absorbance or the optical density (OD) at 450 nm wavelength, with 570 nm as a reference.
e)—The concentrations of IL-8 measured in the samples were determined by using a concentration range of an IL-8 standard. […]

[2] = system: murine B16 melanocytes (B16-F0 line); assay: Melanin titration in B16 melanocytes (melanogenesis); type: cell-based; settings: Mus musculus, B16F0; kojic acid 1 mM; read-out: Inhibition of the melanin release in the culture medium
Method: • 1)—Background Information The aim of this study is to evaluate the effects of HCR extracts on melanogenesis in an in vitro model of murine B16 melanocytes. Cells used in this study were murine melanocytes (B16-F0 line, LGC standards, ATCC-CRL-6322) extracted from murine skin. This cells lines synthesizes a great quantity of melanin which is released in the culture media (so called supernatants), so a titration by spectrophotometry is easy to achieve. These melanocytes were cultured as monolayers; the test compounds were applied during seventy two hours and the synthesized melanin was then released and measured out in the supernatants. A XTT assay was previously performed, to check the cells viability, in order to determine the concentrations to be tested, as described in Example 2. • 2)—Dose Determination (CytotoxicityNiability Check by XTT Assay) and Evaluated Test Compound
B16 melanocytes were seeded in 24-wells plates. […]
Cells were seeded into 24-wells plates (at a cell density of […], i.e. 31,250 B16/cm^2), in the same medium as previously described, one day before treatment (incubation at 37° C./5% CO2). […] After 48 or 72 hours of treatment, the supernatants were homogenized and aliquots were transferred to 96-well plates for spectrophotometry reading at 492 nm wavelength (reading in duplicate). […]

CCCCCCCCCCCCCC(=O)O[C@@H]1[C@@H](C)[C@@]2(O)[C@@H](C=C(CO)C[C@]3(O)C(=O)C(C)=C[C@@H]23)[C@@H]2C(C)(C)[C@]12OC(C)=O [PMA, Phorbol 12-myristate 13-acetate]
IL-8 release, change compared to untreated/unpolluted control [1]: +224%

O=c1cc(CO)occ1O [kojic acid]
inhibition at 1000 µM [2]: > 90%
